Patent publication US20020187514A1 (priority 1999, published 2002)

Columns and labels:
[1] = system: Choline Acetyltransferase; assay: Choline Acetyltransferase; substrate [14C]Acetyl Coenzyme; assay type: biochemical; settings: 10^−5 M
Adenosine Transport (es) = Adenosine Transport (es) (Homo sapiens, UniProt Q99808); assay: biochemical; settings: read-out: Pass 1 (10^−5 M) % Inhibition
Dopamine, D4.4 = molecular target: T1, Dopamine, D4.4 (Homo sapiens, UniProt P21917); assay: biochemical; assay type: binding; settings: read-out: Pass 1 (10^−5 M) % Inhibition
T1 construct: expressed in transfected cells

Angiotensin II, AT2 = assay type: binding; settings: 10^−5 M
Clozapine = assay type: binding
[2] = system: Protein Phosphatase, PP2B (Calcineurin); assay: Protein Phosphatase, PP2B (Calcineurin); substrate pNPP; assay type: biochemical; settings: 10^−5 M
[3] = system: Corticotropin Releasing Factor, CRF; assay type: binding
Histamine, H3 = assay: Histamine, H3; [3H]N-a-MeHistamine; assay type: binding; settings: 10^−5 M
Glutamate, MK-801 Site = assay: Glutamate, MK-801 Site; [3H]MK-801; assay type: binding; settings: 10^−5 M
Serotonin Transporter [4] = molecular target: Serotonin Transporter (Homo sapiens, UniProt P31645); assay: biochemical; settings: read-out: Pass 1 (10^−5 M) % Inhibition
Sigma 1 = molecular target: T2, Sigma 1 (Cavia porcellus, UniProt Q60492); assay: Sigma 1; [3H]-(+)-Pentazocine; assay type: binding, guinea pig
T2 construct: Fresh guinea pig whole brain was obtained following decapitation; from tissue; host or cells: guinea pig whole brain membranes

Serotonin, 5HT1D = Serotonin, 5HT1D (Homo sapiens, UniProt P28221); assay: biochemical; assay type: binding; settings: read-out: Pass 1 (10^−5 M) % Inhibition
Oxytocin = assay type: binding; settings: 10^−5 M
Leukotrine D4, LTB4 = assay: Leukotrine D4, LTB4; [3H]LTD4; assay type: binding; settings: 10^−5 M
[5] = system: Inositol Triphosphate, IP3; assay: Inositol Triphosphate, IP3; [3H]IP3; assay type: binding; settings: 10^−5 M
Serotonin Transporter [6] = molecular target: Serotonin Transporter (Rattus norvegicus, UniProt P31652); assay: biochemical; assay type: binding; settings: read-out: % Inhibiton (10^−5 M)
Orphanin = molecular target: T3, Orphanin (Homo sapiens, UniProt P41146); assay: biochemical; assay type: binding; settings: read-out: Pass 1 (10^−5 M) % Inhibition
T3 construct: expressed in transfected cells

[7] = molecular target: Protein Phosphatase, PP2A (Homo sapiens, UniProt P67775); assay: Protein Phosphatase, PP2A (Human); substrate DiFMUP; assay type: biochemical; settings: read-out: Pass 1 (10^−5 M) % Inhibition
Opiate, Mu = Opiate, Mu (UniProt P33535); assay type: binding
Neuropeptide, NPY1 = Neuropeptide, NPY1 (Homo sapiens, UniProt P25929); assay: Neuropeptide, NPY1 (Human); [125I]PYY; assay type: binding; settings: read-out: Pass 1 (10^−5 M) % Inhibition
[8] = system: Thyrotropin Releasing Hormone, TRH; assay: Thyrotropin Releasing Hormone, TRH; [3H]-(3MeHis2)TRH; assay type: binding; settings: 10^−5 M
Progesterone = Progesterone (Bos taurus, UniProt F1N712); assay: Progesterone; [3H]Promegestone; assay type: binding; settings: read-out: Pass 1 (10^−5 M) % Inhibition
Neurotensin = molecular target: T4, Neurotensin (Homo sapiens, UniProt P30989); assay: biochemical; assay type: binding; settings: read-out: Pass 1 (10^−5 M) % Inhibition
T4 construct: expressed in transfected cells

Purinergic, P2Y = Purinergic, P2Y (Human); [35S]-ATPas; assay type: binding; settings: 10^−5 M
Histamine, H1 = molecular target: T5, Histamine, H1 (Bos taurus, UniProt P30546); assay: Histamine, H1; [3H]Pyrilamine; assay type: binding; settings: read-out: Pass 1 (10^−5 M) % Inhibition
T5 construct: no other source notation after assay name denotes animal cell or animal tissue source; from tissue; host or cells: animal cell or animal tissue, not specified

Dopamine, D1 = Dopamine, D1 (Homo sapiens, UniProt P21728); assay: biochemical; settings: read-out: Pass 1 (10^−5 M) % Inhibition
[9] = system: Potassium Channel, Ca2+ Act., VI; assay: Potassium Channel, Ca2+ Act., VI; [125I]Apamin; assay type: binding; settings: 10^−5 M
Opiate, Delta 1 = Opiate, Delta 1 (UniProt P33533); assay type: binding
Opiate, Kappa = molecular target: T6, Opiate, Kappa (Homo sapiens, UniProt P41145); assay: biochemical; assay type: binding; settings: read-out: Pass 1 (10^−5 M) % Inhibition
T6 construct: expressed in transfected cells

Angiotensin II, ATI = Angiotensin II, ATI (Homo sapiens, UniProt P30556); assay: Angiotensin II, ATI (Human); [125I]-(Sar1-Ile8) Angiotensin; assay type: binding; settings: read-out: Pass 1 (10^−5 M) % Inhibition
Glutamate, Kainate Site = assay: Glutamate, Kainate Site; [3H]Kainic acid; assay type: binding; settings: 10^−5 M
Serotonin, 5HT5A = molecular target: T7, Serotonin, 5HT5A (Homo sapiens, UniProt P47898); assay: biochemical; assay type: binding; settings: read-out: Pass 1 (10^−5 M) % Inhibition
T7 construct: expressed in transfected cells

Esterase = Esterase (Human); substrate Acetylthiocholine; assay type: biochemical
[10] = molecular target: T8, Monoamine Oxidase B, Peripheral (Rattus norvegicus, UniProt P19643); assay: Monoamine Oxidase B, Peripheral; substrate [14C]Phenylethylamine; assay type: biochemical; settings: read-out: Pass 1 (10^−5 M) % Inhibition
T8 construct: no other source notation after assay name denotes animal cell or animal tissue source; from tissue

Adrenergic, Alpha 1B = Adrenergic, Alpha 1B (UniProt P15823); assay: Adrenergic, Alpha 1B; [3H]-7-MeOxy-Prazosin; assay type: binding
[11] = molecular target: Calcium Channel, Type L (Benzothiazepine Site) (Rattus norvegicus, UniProt P22002); assay: Calcium Channel, Type L (Benzothiazepine Site); [3H]Diltiazem, cis(+); assay type: binding; settings: read-out: Pass 1 (10^−5 M) % Inhibition
Serotonin, 5HT3 = Serotonin, 5HT3 (Mus musculus, UniProt P23979); assay: biochemical; assay type: binding
Bradykinin, BK2 = molecular target: T9, Bradykinin, BK2 (Homo sapiens, UniProt P30411); assay: Bradykinin, BK2 (Human recombinant); [3H]-Bradykinin; assay type: binding; settings: read-out: Pass 1 (10^−5 M) % Inhibition
T9 construct: expressed in transfected cells

Adrenergic, Alpha 2B = Adrenergic, Alpha 2B (UniProt P19328); assay type: binding
Serotonin, 5HT7 = molecular target: T10, Serotonin, 5HT7 (Homo sapiens, UniProt P34969); assay: biochemical; assay type: binding; settings: read-out: Pass 1 (10^−5 M) % Inhibition
T10 construct: expressed in transfected cells

[12] = read-out: Pass 1 (10^−5 M) % Inhibition

T2 sequence (Q60492 whole entry): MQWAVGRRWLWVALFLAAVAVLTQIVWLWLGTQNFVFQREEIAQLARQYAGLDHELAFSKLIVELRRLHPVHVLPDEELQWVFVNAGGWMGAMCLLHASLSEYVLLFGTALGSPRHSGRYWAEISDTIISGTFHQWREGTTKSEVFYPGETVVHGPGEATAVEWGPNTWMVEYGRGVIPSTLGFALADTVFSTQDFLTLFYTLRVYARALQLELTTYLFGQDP
Chain of Serotonin, 5HT3 (P23979 24-489): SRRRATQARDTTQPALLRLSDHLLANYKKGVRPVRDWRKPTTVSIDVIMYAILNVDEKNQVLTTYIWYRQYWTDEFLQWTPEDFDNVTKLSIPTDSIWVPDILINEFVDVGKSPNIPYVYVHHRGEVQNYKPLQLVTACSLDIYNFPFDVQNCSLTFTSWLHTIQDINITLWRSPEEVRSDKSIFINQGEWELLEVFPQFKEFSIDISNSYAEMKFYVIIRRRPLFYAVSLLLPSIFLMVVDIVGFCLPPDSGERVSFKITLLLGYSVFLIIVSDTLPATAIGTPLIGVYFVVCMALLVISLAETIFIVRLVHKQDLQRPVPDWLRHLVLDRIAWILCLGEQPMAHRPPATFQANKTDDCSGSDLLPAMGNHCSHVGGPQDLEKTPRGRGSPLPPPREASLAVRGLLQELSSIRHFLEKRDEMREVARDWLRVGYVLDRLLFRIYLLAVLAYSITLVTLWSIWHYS
T8 sequence (P19643 whole entry): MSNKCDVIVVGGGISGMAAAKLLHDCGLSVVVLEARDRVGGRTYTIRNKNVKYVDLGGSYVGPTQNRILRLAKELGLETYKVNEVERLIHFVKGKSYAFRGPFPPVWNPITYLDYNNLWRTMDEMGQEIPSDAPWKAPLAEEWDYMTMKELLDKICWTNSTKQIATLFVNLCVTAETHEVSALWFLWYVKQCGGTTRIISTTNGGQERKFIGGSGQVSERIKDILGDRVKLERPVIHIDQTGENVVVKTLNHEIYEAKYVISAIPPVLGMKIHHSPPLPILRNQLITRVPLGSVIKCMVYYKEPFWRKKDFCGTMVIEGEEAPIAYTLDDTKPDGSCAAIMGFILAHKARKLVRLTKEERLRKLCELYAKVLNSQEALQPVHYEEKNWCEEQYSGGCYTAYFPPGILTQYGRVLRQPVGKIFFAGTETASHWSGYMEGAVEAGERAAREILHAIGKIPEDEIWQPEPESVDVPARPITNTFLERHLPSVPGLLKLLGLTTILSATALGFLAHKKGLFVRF
Chain of Adrenergic, Alpha 2B (P19328 whole entry): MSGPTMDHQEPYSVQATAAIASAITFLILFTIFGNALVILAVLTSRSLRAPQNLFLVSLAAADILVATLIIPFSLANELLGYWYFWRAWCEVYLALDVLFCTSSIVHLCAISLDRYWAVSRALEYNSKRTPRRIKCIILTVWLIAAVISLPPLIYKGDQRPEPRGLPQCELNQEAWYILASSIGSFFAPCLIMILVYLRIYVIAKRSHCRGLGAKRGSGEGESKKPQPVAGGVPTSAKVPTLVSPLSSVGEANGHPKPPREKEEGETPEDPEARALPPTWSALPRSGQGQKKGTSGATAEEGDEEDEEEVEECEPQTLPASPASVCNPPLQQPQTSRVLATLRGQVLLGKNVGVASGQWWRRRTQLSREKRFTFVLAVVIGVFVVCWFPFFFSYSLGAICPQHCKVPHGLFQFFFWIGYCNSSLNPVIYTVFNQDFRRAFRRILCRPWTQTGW
Chain of Dopamine, D1 (P21728 whole entry): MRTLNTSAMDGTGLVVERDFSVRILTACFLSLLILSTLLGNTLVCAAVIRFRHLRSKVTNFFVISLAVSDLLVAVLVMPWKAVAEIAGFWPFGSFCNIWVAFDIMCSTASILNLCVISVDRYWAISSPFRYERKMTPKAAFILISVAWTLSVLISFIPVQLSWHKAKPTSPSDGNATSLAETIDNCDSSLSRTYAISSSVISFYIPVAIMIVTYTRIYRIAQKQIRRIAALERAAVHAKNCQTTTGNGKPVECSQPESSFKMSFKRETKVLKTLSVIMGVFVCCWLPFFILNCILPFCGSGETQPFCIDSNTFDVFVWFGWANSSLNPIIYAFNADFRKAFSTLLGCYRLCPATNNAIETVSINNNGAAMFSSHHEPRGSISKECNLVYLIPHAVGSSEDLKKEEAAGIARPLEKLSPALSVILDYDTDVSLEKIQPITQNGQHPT
Chain of Serotonin Transporter (Rattus norvegicus, UniProt P31652) (P31652 whole entry): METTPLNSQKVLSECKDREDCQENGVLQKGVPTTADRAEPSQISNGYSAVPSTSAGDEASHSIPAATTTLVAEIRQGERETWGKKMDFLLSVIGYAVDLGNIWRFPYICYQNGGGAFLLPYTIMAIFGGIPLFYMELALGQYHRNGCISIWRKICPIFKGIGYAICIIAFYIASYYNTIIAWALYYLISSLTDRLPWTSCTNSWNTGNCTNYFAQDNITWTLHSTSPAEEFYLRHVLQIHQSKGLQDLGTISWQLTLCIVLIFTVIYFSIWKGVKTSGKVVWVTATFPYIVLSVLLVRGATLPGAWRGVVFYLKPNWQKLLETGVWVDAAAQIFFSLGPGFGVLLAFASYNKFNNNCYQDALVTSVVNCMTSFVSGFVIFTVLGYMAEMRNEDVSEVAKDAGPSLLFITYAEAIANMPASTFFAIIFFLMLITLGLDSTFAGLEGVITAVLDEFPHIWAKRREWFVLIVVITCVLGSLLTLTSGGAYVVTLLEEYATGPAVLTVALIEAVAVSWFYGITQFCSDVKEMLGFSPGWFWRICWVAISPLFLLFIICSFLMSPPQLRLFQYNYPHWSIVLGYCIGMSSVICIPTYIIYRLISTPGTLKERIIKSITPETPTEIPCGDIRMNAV
T4 sequence (P30989 whole entry): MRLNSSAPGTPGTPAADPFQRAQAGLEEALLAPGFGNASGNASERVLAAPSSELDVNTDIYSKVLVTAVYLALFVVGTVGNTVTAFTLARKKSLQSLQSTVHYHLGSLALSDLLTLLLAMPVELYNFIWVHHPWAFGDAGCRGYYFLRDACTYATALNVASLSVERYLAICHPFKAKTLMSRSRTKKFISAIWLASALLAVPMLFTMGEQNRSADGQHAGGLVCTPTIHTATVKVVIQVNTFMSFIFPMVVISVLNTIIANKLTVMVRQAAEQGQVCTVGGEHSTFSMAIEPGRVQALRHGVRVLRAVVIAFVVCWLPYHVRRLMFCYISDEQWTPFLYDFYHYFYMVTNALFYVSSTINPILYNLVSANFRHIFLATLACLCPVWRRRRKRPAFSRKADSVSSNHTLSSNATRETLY
Chain of Progesterone (F1N712 entry or part of it): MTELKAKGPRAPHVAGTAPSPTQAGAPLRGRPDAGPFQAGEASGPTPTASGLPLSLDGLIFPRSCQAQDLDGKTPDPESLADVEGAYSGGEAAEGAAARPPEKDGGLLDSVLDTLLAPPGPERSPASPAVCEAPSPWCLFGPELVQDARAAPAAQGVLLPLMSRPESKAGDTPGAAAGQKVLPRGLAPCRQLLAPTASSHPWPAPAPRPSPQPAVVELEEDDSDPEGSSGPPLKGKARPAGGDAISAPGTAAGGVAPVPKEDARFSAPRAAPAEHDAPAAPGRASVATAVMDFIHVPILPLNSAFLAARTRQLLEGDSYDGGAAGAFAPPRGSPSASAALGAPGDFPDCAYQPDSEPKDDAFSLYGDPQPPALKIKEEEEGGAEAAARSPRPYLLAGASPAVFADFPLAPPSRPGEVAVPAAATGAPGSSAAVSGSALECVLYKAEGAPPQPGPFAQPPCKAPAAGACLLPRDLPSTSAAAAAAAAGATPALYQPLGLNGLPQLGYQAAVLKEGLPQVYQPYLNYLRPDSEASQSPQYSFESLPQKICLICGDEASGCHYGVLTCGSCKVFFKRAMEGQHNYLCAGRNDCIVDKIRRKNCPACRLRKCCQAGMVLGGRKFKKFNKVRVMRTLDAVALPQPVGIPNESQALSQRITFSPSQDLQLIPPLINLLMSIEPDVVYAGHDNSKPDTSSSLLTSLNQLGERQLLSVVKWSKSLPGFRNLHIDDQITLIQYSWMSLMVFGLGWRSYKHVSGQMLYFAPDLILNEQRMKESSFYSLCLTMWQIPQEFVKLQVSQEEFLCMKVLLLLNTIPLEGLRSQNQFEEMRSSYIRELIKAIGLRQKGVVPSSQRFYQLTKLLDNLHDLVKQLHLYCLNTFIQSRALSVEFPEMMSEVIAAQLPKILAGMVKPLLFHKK
T7 sequence (P47898 whole entry): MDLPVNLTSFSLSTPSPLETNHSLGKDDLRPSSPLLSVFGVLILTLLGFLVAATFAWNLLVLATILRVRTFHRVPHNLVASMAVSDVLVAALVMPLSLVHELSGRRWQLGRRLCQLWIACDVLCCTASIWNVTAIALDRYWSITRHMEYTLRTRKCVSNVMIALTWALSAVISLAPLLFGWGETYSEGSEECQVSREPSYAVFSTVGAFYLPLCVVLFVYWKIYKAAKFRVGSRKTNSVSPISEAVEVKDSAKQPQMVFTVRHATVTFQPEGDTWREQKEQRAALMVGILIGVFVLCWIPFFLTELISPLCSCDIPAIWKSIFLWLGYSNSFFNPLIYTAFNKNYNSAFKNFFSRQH
T3 sequence (P41146 whole entry): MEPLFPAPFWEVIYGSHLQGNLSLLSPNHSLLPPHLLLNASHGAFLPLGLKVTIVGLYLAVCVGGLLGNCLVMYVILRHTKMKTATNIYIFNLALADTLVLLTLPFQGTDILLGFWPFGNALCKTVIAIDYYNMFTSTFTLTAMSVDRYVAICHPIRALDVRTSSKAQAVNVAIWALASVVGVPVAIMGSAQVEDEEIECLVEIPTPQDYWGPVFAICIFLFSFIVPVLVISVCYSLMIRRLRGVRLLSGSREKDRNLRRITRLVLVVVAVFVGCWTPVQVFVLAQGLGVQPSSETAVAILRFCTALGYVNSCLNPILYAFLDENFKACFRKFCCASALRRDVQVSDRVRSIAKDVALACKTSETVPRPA

COC(=O)[C@H]1[C@@H](OC(=O)c2ccccc2)C[C@@H]2CC[C@H]1N2C [cocaine]
Pass 1 (10^−5 M) % Inhibition [1]: 8.25%
inhibition at 10 µM (Adenosine Transport (es)): 47.5%
inhibition at 10 µM (Dopamine, D4.4): 18.8%
Pass 1 (10^−5 M) % Inhibition (Angiotensin II, AT2): 5.85%
Pass 1 (10^−5 M) % Inhibition (Clozapine): 1.37%
Pass 1 (10^−5 M) % Inhibition [2]: −10.37%
Pass 1 (10^−5 M) % Inhibition [3]: 22.49%
Pass 1 (10^−5 M) % Inhibition (Histamine, H3): −4.60%
Pass 1 (10^−5 M) % Inhibition (Glutamate, MK-801 Site): −2.86%
inhibition at 10 µM (Serotonin Transporter [4]): 97.5%
Ki (Sigma 1): 11.6 µM
inhibition at 10 µM (Sigma 1; [12]): 64.7%
inhibition at 10 µM (Serotonin, 5HT1D): 3.12%
Pass 1 (10^−5 M) % Inhibition (Oxytocin): −4.65%
Pass 1 (10^−5 M) % Inhibition (Leukotrine D4, LTB4): −17.11%
Pass 1 (10^−5 M) % Inhibition [5]: −19.14%
inhibition at 10 µM (Serotonin Transporter [6]): 96.2%
inhibition at 10 µM (Orphanin): 32.3%
inhibition at 10 µM [7]: 15.3%
Pass 1 (10^−5 M) % Inhibition (Opiate, Mu): −4.22%
inhibition at 10 µM (Neuropeptide, NPY1): 26.6%
Pass 1 (10^−5 M) % Inhibition [8]: −11.95%
inhibition at 10 µM (Progesterone): -10.9%
inhibition at 10 µM (Neurotensin): 19.1%
Pass 1 (10^−5 M) % Inhibition (Purinergic, P2Y): 16.43%
inhibition at 10 µM (Histamine, H1): -19.7%
inhibition at 10 µM (Dopamine, D1): 17.5%
Pass 1 (10^−5 M) % Inhibition [9]: 11.04%
Pass 1 (10^−5 M) % Inhibition (Opiate, Delta 1): 2.51%
inhibition at 10 µM (Opiate, Kappa): 1.87%
inhibition at 10 µM (Angiotensin II, ATI): 21.2%
Pass 1 (10^−5 M) % Inhibition (Glutamate, Kainate Site): 1.95%
inhibition at 10 µM (Serotonin, 5HT5A): 12%
Pass 1 (10^−5 M) % Inhibition (Esterase): 31.58%
inhibition at 10 µM [10]: -22.8%
Pass 1 (10^−5 M) % Inhibition (Adrenergic, Alpha 1B): −6.30%
inhibition at 10 µM [11]: 20.3%
Ki (Serotonin, 5HT3; Pass 3 screening, nine concentrations, read-out: Ki Determination): 3.09 µM
inhibition at 10 µM (Serotonin, 5HT3; [12]): 60.3%
inhibition at 10 µM (Bradykinin, BK2): 4.48%
Pass 1 (10^−5 M) % Inhibition (Adrenergic, Alpha 2B): −3.82%
inhibition at 10 µM (Serotonin, 5HT7): 26.8%
